According to EP3120851A1, “4-AMINO-6-(2,6-DICHLOROPHENYL)-8-METHYL-2-(PHENYLAMINO)-PYRIDO[2,3-D]PYRIMIDIN-7(8H)-ONE FOR TREATMENT OF SOLID CANCERS” (Pangaea Biotech S.L., priority 2015, dated 2017):
Where two headings read alike, the source gives them in different places.

Assays:
Experiment in all cases: MTT cell viability assay, combinations (Chou-Talalay method)
Type in all cases: cell-based
H3122 Cells = settings: for IC50: Homo sapiens
Experimental: (§1) The combinations comprising the compound of formula (1) were tested using an MTT proliferation assay in a panel of tumor cell lines of different origins. All culture materials were obtained from the sources described in Example 2. In the Chou-Talalay method, which is the standard, universally known methodology to determine drug interactions, the two drugs under study are maintained at a fixed ratio of IC50 single agent (drug 1):IC50 single agent (drug 2) while the concentration of total amount of drugs in the combination is varied and the 20% (IC20), 50% (IC50) and 80% (IC80) of growth inhibition of the combination is determined.
(§2) In the activity assays on cell lines the following terms are used: • IC50: Drug concentration at which 50% growth inhibition is achieved. • TKI IC50: The IC50 of the tyrosine kinase inhibitor as single agent. • Compound (1) IC50: The IC50 of compound (1) as single agent. • CI@IC20: The combination index of the combination consisting of drug 1 and drug 2 at a weight ratio equal to IC50 of drug 1:IC50 of drug 2 wherein said combination is used at a total amount that achieves 20% of growth inhibition. • CI@IC50: The combination index of the combination consisting of drug 1 and drug 2 at a weight ratio equal to IC50 of drug 1:IC50 of drug 2, wherein said combination is used at a total amount that achieves 50% of growth inhibition. • CI@IC80: The combination index of the combination consisting of drug 1 and drug 2 at a weight ratio equal to IC50 of drug 1:IC50 of drug 2, wherein said combination is used at a total amount that achieves 80% of growth inhibition. • Combination TKI IC50: The combination index at a tyrosine kinase inhibitor concentration that corresponds to the IC50 (single agent). • The combination index (CI) concept was introduced by Chou T.C. and Talalay P.(Chou TC, Talalay P. Adv Enzyme Regul 1984;22:27-55). The derived combination index equation for two drugs is (D = dosage or concentration): CI = ((D)1)/((Dx)1) + ((D)2)/((Dx)2) [formula] where (Dx)1 is the concentration of drug 1 "alone" that inhibits growth at a x% (i.e. (D50)1 is the concentration of drug 1 "alone" that inhibits growth at a 50%), (Dx)2 is the concentration of drug 2 "alone" that inhibits growth at a x%, (D)1 and (D)2 refer to the concentration of drug 1 and drug 2, respectively, in the combination, wherein the combination inhibits growth at the same x%. The CI Value quantitatively defines synergism (CI<1) (in particular, CI values of CI<0.7 indicates strong synergism, 0.7<CI<0.85 indicates moderate synergism, 0.85<CI<1 indicates slight synergism), additive effect (CI=1) and antagonism (CI>1). Based on the above equation, a plot of CI values at different effect levels (fa's) can be determined. Entering a series of "dose" ((D1), (D2), ((Dx)1 and (Dx)2) and % of growth inhibition (%x or effect (fa))" into an excel sheet for each drug alone and their combinations, the CI values at different x% (or fa levels) are obtained using the above equation. This plot is also called the Fa-CI plot or the Chou-Talalay plot.
(§3) Cell viability in response to combination treatment was assessed by the Thiazolyl Blue Tetrazolium Bromide (MTT) (Sigma, St Louis, MO) assay. Cells from each cell line were seeded at 2000 to 10000 per well in 96-well plates. […] Twenty-four hours after seeding, cells were exposed to compound (1), commercial drug or combinations thereof for 72 h. In the Chou-Talalay method, which is the standard, universally known methodology to determine drug interactions, the two drugs under study are maintained at a fixed ratio IC50 single agent (drug 1):IC50 single agent (drug 2).
(§4) After treatment, cells were incubated with medium containing MTT (0.75 mg/mL in medium) for 1-2 h at 37°C. Culture medium with MTT was removed and formazan crystals reabsorbed in 100 µL DMSO (Sigma, St. Louis, MO). Cell viability was determined by measuring the absorbance at 492 nm, using a microplate reader (BioWhittaker, Walkersville, MD).

H2228 Cells = settings: Homo sapiens, H2228 cells
Experimental: as §1, §2, §3, §4

HCC78 cells = tested on: HCC78 cells
Experimental: as §1, §2, §3, §4

[1] = NCI-H3122, 72 h, H3122 cells, tyrosine kinase inhibitor as single agent, 72 h, read-out: TKI IC50
[2] = Homo sapiens, HCC78, 72 h, HCC78 cells, tyrosine kinase inhibitor as single agent, 72 h, read-out: TKI IC50

Fold change in the TKI IC50 (H3122 Cells; H3122 cells, TKI single agent vs with compound (1)) [fold] | IC50 (H3122 Cells; NCI-H3122, H3122 cells, TKI in combination with compound (1), read-out: Combination TKI IC50) [nM] | Fold change in the TKI IC50 (HCC78 cells; HCC78 cells, TKI single agent vs with compound (1)) [fold] | IC50 (HCC78 cells; Homo sapiens, HCC78, HCC78 cells, TKI in combination with compound (1), read-out: Combination TKI IC50) [nM] | Structure (SMILES) | IC50 (H3122 Cells; [1]) [nM] | IC50 (H3122 Cells; NCI-H3122, read-out: IC50 of crizotinib in presence of compound of formula (1), H3122 cells, combination with compound (1)) [nM] | IC50 (H2228 Cells; NCI-H2228, read-out: IC50 of crizotinib when compound of formula (1) was also administered, combination with compound (1)) [nM] | IC50 (H2228 Cells; NCI-H2228, tyrosine kinase inhibitor as single agent, 72 h, read-out: TKI IC50) [nM] | IC50 (HCC78 cells; HCC78 cells, tyrosine kinase inhibitor as single agent, 72 h, read-out: TKI IC50) [nM] | IC50 (HCC78 cells; [2]) [nM] | IC50 (HCC78 cells; Homo sapiens, HCC78, read-out: Combination TKI IC50, HCC78 cells, TKI in combination with compound (1)) [nM] | IC50 (HCC78 cells; read-out: Combination TKI IC50, HCC78 cells, TKI in combination with compound (1)) [nM]
3.355 | 15 |  |  | CCc1cc2c(cc1N1CCC(N3CCOCC3)CC1)C(C)(C)c1[nH]c3cc(C#N)ccc3c1C2=O [Alectinib, 9-ethyl-6,6-dimethyl-8-(4-morpholinopiperidin-1-yl)-11-oxo-6,11-dihydro-5H-benzo[b]carbazole-3-carbonitrile] | 50 |  |  |  |  |  |  | 
 |  |  |  | C[C@@H](Oc1cc(-c2cnn(C3CCNCC3)c2)cnc1N)c1c(Cl)ccc(F)c1Cl [Crizotinib, 3-[(1R)-1-(2,6-dichloro-3-fluorophenyl)ethoxy]-5-(1-piperidin-4-ylpyrazol-4-yl)pyridin-2-amine] | 190 | 29 | 53 | 250 | 7160 | 7200 | 250 | 249
 |  | 2.846 | 130 | COc1cc2c(Oc3ccc(NC(=O)C4(C(=O)Nc5ccc(F)cc5)CC4)cc3F)ccnc2cc1OCCCN1CCOCC1 [Foretinib, N^1'-[3-fluoro-4-[[6-methoxy-7-(3-morpholinopropoxy)-4-quinolyl]oxy]phenyl]-N'-(4-fluorophenyl)cyclopropane-1,1-dicarboxamide] |  |  |  |  |  | 370 |  | 
